Assay results: US20200339625A1, “NOVEL RADIOMETAL-BINDING COMPOUNDS FOR DIAGNOSIS OR TREATMENT OF PROSTATE SPECIFIC MEMBRANE ANTIGEN-EXPRESSING CANCER” (PROVINCIAL HEALTH SERVICES AUTHORITY, priority 2017, published 2020)

Experiments:
[1] = system: mice bearing LNCaP xenografts; test: Biodistribution of 177Lu-labeled compounds; format: in vivo
Method: 1.17 SPECT/CT Imaging, Biodistribution and Endoradiotherapy Studies
(§1) SPECT/CT imaging and biodistribution were performed using NOD-scid IL2Rgammanu^null (NSG) male mice, and the endoradiotherapy study was conducted using NOD.Cg-Rag1^tm1MomII2rg^tm1WjI/SzJ (NRG) male mice. The mice were maintained and the experiments were conducted in according to the guidelines established by the Canadian Council on Animal Care and approved by Animal Ethics Committee of the University of British Columbia. Mice were anesthetized by inhalation with 2% isoflurane in oxygen, and implanted subcutaneously with 1×10^7 LNCaP cells posterior to the left shoulder. Mice were used for studies when the tumor reached 5-8 mm in diameter 5-6 weeks after inoculation.
For biodistribution studies, the mice were injected with ^177Ludabeled PSMA-617 or HTK01169 (2-4 MBq) as described above. At predetermined time points (1, 4, 24, 72, or 120 h post-injection), the mice were euthanized by CO2 inhalation. Blood was withdrawn immediately from the heart, and the organs/tissues of interest were collected. The collected organs/tissues were weighed and counted using an automated gamma counter. For the blocking study, mice were co-injected with ^177Lu-HTK01169 (2-4 MBq) and 50 nmol of the non-radioactive standard, and organs/tissues of interest were collected at 4 h post-injection.

[2] = system: LNCaP tumor-bearing mice; test: Endoradiotherapy study; format: in vivo
Method: as §1
For radiotherapy study, tumor-bearing mice were injected with saline (the control group), ^177Lu-PSMA-617 (18.5 MBq) or ^177Lu-HTK01169 (18.5, 9.3, 4.6, or 2.3 MBq) (n=8 per group). Tumor size and body weight were measured twice a week from the date of injection (Day 0) until completion of the study (Day 120). Endpoint criteria were defined as >20% weight loss, tumor volume >1000 mm^3, or active ulceration of the tumor.

[3] = system: LNCaP tumors; test: Radiation dosimetry calculation, unit density sphere model; parameters: species or system mice
Method: Internal dosimetry estimates were calculated using the organ level internal dose assessment (OLINDA) software v.2.0.^37 These estimates were performed for the mouse using the 25 g MOBY phantom,^38 for humans using the NURBS model for the adult male,^39 and for the tumors using the previously reported unit density sphere model.^40 All the phantoms and the sphere model are available in OLINDA and require the input of the total number of decays normalized by injected activity in units of MBq×h/MBq for each of the source organ/tumor.
Lastly, the numbers of decays in the tumors were also calculated based on the biodistribution data of the mice and the values were inputted into the sphere model available in OLINDA.

O=C([O-])CN1CCN(CC(=O)[O-])CCN(CC(=O)NCC2CCC(C(=O)N[C@@H](Cc3ccc4ccccc4c3)C(=O)NCCCC[C@H](NC(=O)N[C@@H](CCC(=O)O)C(=O)O)C(=O)O)CC2)CCN(CC(=O)[O-])CC1.[177Lu+3] (stereo partly shown) [^177Lu-PSMA-617, reference compound]
tumor-to-background contrast ratios, trend ([1]; 1-120 h): improved over time as well
Adrenal glands uptake ([1]; 1 h post-injection): 4.88±2.41 % ID/g
Blood uptake ([1]; 1 h post-injection): 0.68±0.23 % ID/g
Bone uptake ([1]; 1 h post-injection): 0.14 ± 0.06 % ID/g
Brain uptake ([1]; 1 h post-injection): 0.03 ± 0.01 % ID/g
Fat uptake ([1]; 1 h post-injection): 0.46 ± 0.18 % ID/g
Heart uptake ([1]; 1 h post-injection): 0.28 ± 0.10 % ID/g
Intestine uptake ([1]; 1 h post-injection): 0.26 ± 0.16 % ID/g
Kidneys uptake ([1]; 1 h post-injection): 97.2±19.4 % ID/g
Liver uptake ([1]; 1 h post-injection): 0.26 ± 0.15 % ID/g
Lung uptake ([1]; 1 h post-injection): 1.34±0.39 % ID/g
Muscle uptake ([1]; 1 h post-injection): 0.18 ± 0.06 % ID/g
Pancreas uptake ([1]; 1 h post-injection): 0.33 ± 0.18 % ID/g
Seminal uptake ([1]; 1 h post-injection): 0.14 ± 0.08 % ID/g
Spleen uptake ([1]; 1 h post-injection): 3.34±1.77 % ID/g
Stomach uptake ([1]; 1 h post-injection): 0.18 ± 0.14 % ID/g
Testes uptake ([1]; 1 h post-injection): 0.49 ± 0.22 % ID/g
Tumor uptake ([1]; 1 h post-injection): 15.1±5.58 % ID/g
Tumor/blood ratio ([1]; 1 h post-injection): 22.8 ± 6.85
Tumor/kidney ratio ([1]; 1 h post-injection): 0.15 ± 0.04
Tumor/muscle ratio ([1]; 1 h post-injection): 86.9 ± 26.6
Adrenal glands uptake ([1]; 4 h post-injection): 0.40 ± 0.18 % ID/g
Blood uptake ([1]; 4 h post-injection): 0.12 ± 0.18 % ID/g
Bone uptake ([1]; 4 h post-injection): 0.06 ± 0.03 % ID/g
Brain uptake ([1]; 4 h post-injection): 0.02 ± 0.00 % ID/g
Fat uptake ([1]; 4 h post-injection): 0.16 ± 0.11 % ID/g
Heart uptake ([1]; 4 h post-injection): 0.04 ± 0.02 % ID/g
Intestine uptake ([1]; 4 h post-injection): 0.07 ± 0.04 % ID/g
Kidneys uptake ([1]; 4 h post-injection): 26.6 ± 19.1 % ID/g
Liver uptake ([1]; 4 h post-injection): 0.08 ± 0.06 % ID/g
Lung uptake ([1]; 4 h post-injection): 0.16 ± 0.07 % ID/g
Muscle uptake ([1]; 4 h post-injection): 0.05 ± 0.03 % ID/g
Pancreas uptake ([1]; 4 h post-injection): 0.05 ± 0.01 % ID/g
Seminal uptake ([1]; 4 h post-injection): 0.02 ± 0.01 % ID/g
Spleen uptake ([1]; 4 h post-injection): 0.24 ± 0.14 % ID/g
Stomach uptake ([1]; 4 h post-injection): 0.04 ± 0.02 % ID/g
Testes uptake ([1]; 4 h post-injection): 0.06 ± 0.01 % ID/g
Tumor uptake ([1]; 4 h post-injection): 14.5 ± 1.83 % ID/g
Tumor/blood ratio ([1]; 4 h post-injection): 290 ± 175
Tumor/kidney ratio ([1]; 4 h post-injection): 0.79 ± 0.48
Tumor/muscle ratio ([1]; 4 h post-injection): 371 ± 171
Adrenal glands uptake ([1]; 24 h post-injection): 0.06 ± 0.03 % ID/g
Blood uptake ([1]; 24 h post-injection): 0.00 ± 0.00 % ID/g
Bone uptake ([1]; 24 h post-injection): 0.03 ± 0.02 % ID/g
Brain uptake ([1]; 24 h post-injection): 0.01 ± 0.00 % ID/g
Fat uptake ([1]; 24 h post-injection): 0.08 ± 0.03 % ID/g
Heart uptake ([1]; 24 h post-injection): 0.01 ± 0.00 % ID/g
Intestine uptake ([1]; 24 h post-injection): 0.02 ± 0.00 % ID/g
Kidneys uptake ([1]; 24 h post-injection): 0.58 ± 0.22 % ID/g
Liver uptake ([1]; 24 h post-injection): 0.03 ± 0.01 % ID/g
Lung uptake ([1]; 24 h post-injection): 0.03 ± 0.01 % ID/g
Muscle uptake ([1]; 24 h post-injection): 0.01 ± 0.00 % ID/g
Pancreas uptake ([1]; 24 h post-injection): 0.01 ± 0.00 % ID/g
Seminal uptake ([1]; 24 h post-injection): 0.01 ± 0.00 % ID/g
Spleen uptake ([1]; 24 h post-injection): 0.05 ± 0.01 % ID/g
Stomach uptake ([1]; 24 h post-injection): 0.04 ± 0.02 % ID/g
Testes uptake ([1]; 24 h post-injection): 0.02 ± 0.01 % ID/g
Tumor uptake ([1]; 24 h post-injection): 10.9 ± 3.30 % ID/g
Tumor/blood ratio ([1]; 24 h post-injection): 2293 ± 651
Tumor/kidney ratio ([1]; 24 h post-injection): 20.7 ± 8.39
Tumor/muscle ratio ([1]; 24 h post-injection): 1582 ± 353
Adrenal glands uptake ([1]; 72 h post-injection): 0.10 ± 0.06 % ID/g
Blood uptake ([1]; 72 h post-injection): 0.00 ± 0.00 % ID/g
Bone uptake ([1]; 72 h post-injection): 0.05 ± 0.02 % ID/g
Brain uptake ([1]; 72 h post-injection): 0.01 ± 0.00 % ID/g
Fat uptake ([1]; 72 h post-injection): 0.05 ± 0.02 % ID/g
Heart uptake ([1]; 72 h post-injection): 0.01 ± 0.01 % ID/g
Intestine uptake ([1]; 72 h post-injection): 0.01 ± 0.01 % ID/g
Kidneys uptake ([1]; 72 h post-injection): 0.22 ± 0.11 % ID/g
Liver uptake ([1]; 72 h post-injection): 0.02 ± 0.01 % ID/g
Lung uptake ([1]; 72 h post-injection): 0.02 ± 0.01 % ID/g
Muscle uptake ([1]; 72 h post-injection): 0.01 ± 0.00 % ID/g
Pancreas uptake ([1]; 72 h post-injection): 0.01 ± 0.01 % ID/g
Seminal uptake ([1]; 72 h post-injection): 0.01 ± 0.01 % ID/g
Spleen uptake ([1]; 72 h post-injection): 0.03 ± 0.02 % ID/g
Stomach uptake ([1]; 72 h post-injection): 0.03 ± 0.03 % ID/g
Testes uptake ([1]; 72 h post-injection): 0.01 ± 0.00 % ID/g
Tumor uptake ([1]; 72 h post-injection): 7.80 ± 3.69 % ID/g
Tumor/blood ratio ([1]; 72 h post-injection): 2206 ± 337
Tumor/kidney ratio ([1]; 72 h post-injection): 38.0 ± 13.4
Tumor/muscle ratio ([1]; 72 h post-injection): 1378 ± 335
Adrenal glands uptake ([1]; 120 h post-injection): 0.04 ± 0.02 % ID/g
Blood uptake ([1]; 120 h post-injection): 0.00 ± 0.00 % ID/g
Bone uptake ([1]; 120 h post-injection): 0.02 ± 0.01 % ID/g
Brain uptake ([1]; 120 h post-injection): 0.01 ± 0.00 % ID/g
Fat uptake ([1]; 120 h post-injection): 0.03 ± 0.01 % ID/g
Heart uptake ([1]; 120 h post-injection): 0.00 ± 0.00 % ID/g
Intestine uptake ([1]; 120 h post-injection): 0.03 ± 0.03 % ID/g
Kidneys uptake ([1]; 120 h post-injection): 0.08 ± 0.03 % ID/g
Liver uptake ([1]; 120 h post-injection): 0.01 ± 0.00 % ID/g
Lung uptake ([1]; 120 h post-injection): 0.01 ± 0.00 % ID/g
Muscle uptake ([1]; 120 h post-injection): 0.00 ± 0.00 % ID/g
Pancreas uptake ([1]; 120 h post-injection): 0.00 ± 0.00 % ID/g
Seminal uptake ([1]; 120 h post-injection): 0.00 ± 0.00 % ID/g
Spleen uptake ([1]; 120 h post-injection): 0.02 ± 0.01 % ID/g
Stomach uptake ([1]; 120 h post-injection): 0.05 ± 0.05 % ID/g
Testes uptake ([1]; 120 h post-injection): 0.01 ± 0.00 % ID/g
Tumor uptake ([1]; 120 h post-injection): 7.91±2.82 % ID/g
Tumor/blood ratio ([1]; 120 h post-injection): 4425 ± 1485
Tumor/kidney ratio ([1]; 120 h post-injection): 103 ± 75.9
Tumor/muscle ratio ([1]; 120 h post-injection): 4388 ± 4211
blood clearance (qualitative) ([1]; mouse, in vivo): cleared rapidly from blood
peaked tumor uptake ([1]; peak over 1-120 h): 15.1±5.58 % ID/g
change of tumor size over time ([2]; 18.5 MBq): shrank initially but grew back later
Median survival ([2]; 18.5 MBq injected, n=8): 58 days
kinetic uptake value used as input in OLINDA [3]: 3.80 MBq-h/MBq
